“And” between values parts separate entries of the source, which are not always exact repeats. Identical values can stand only once.
Tested on: 521955-158-R2-J5-PDC complex spheroid growth
Assay: Anticancer human tumor 521955-158-R2-J5-PDC patient-derived pancreatic carcinoma cell line growth inhibition [AhR]
Conditions: for viability, T/C: stronger effect = lower value
In short: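 Spheroids combined tumor cells with HUVEC endothelial cells and human MSCs as stroma. AhR antagonists were paired with standard or investigational drugs, each dosed in half-log steps down from near clinical Cmax, or from 10 microM where Cmax was unknown.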

[1] = curve of first compound, second compound 0.1 µM
[2] = curve of first compound, second compound 0.316 µM
[3] = curve of first compound, second compound 1 µM
[4] = curve of first compound, second compound 3.16 µM
[5] = curve of first compound, second compound 10 µM
[6] = second compound 0.1 µM, first compound 0.00316 µM
[7] = second compound 0.1 µM, first compound 0.01 µM
[8] = second compound 0.1 µM, first compound 0.0316 µM
[9] = second compound 0.1 µM, first compound 0.1 µM
[10] = second compound 0.1 µM, first compound 0.316 µM
[11] = second compound 0.1 µM, first compound 1 µM
[12] = second compound 0.316 µM, first compound 0.00316 µM
[13] = second compound 0.316 µM, first compound 0.01 µM
[14] = second compound 0.316 µM, first compound 0.0316 µM
[15] = second compound 0.316 µM, first compound 0.1 µM
[16] = second compound 0.316 µM, first compound 0.316 µM
[17] = second compound 0.316 µM, first compound 1 µM
[18] = second compound 1 µM, first compound 0.00316 µM
[19] = second compound 1 µM, first compound 0.01 µM
[20] = second compound 1 µM, first compound 0.0316 µM
[21] = second compound 1 µM, first compound 0.1 µM
[22] = second compound 1 µM, first compound 0.316 µM
[23] = second compound 1 µM, first compound 1 µM
[24] = second compound 3.16 µM, first compound 0.00316 µM
[25] = second compound 3.16 µM, first compound 0.01 µM
[26] = second compound 3.16 µM, first compound 0.0316 µM
[27] = second compound 3.16 µM, first compound 0.1 µM
[28] = second compound 3.16 µM, first compound 0.316 µM
[29] = second compound 3.16 µM, first compound 1 µM
[30] = second compound 10 µM, first compound 0.00316 µM
[31] = second compound 10 µM, first compound 0.01 µM
[32] = second compound 10 µM, first compound 0.0316 µM
[33] = second compound 10 µM, first compound 0.1 µM
[34] = second compound 10 µM, first compound 0.316 µM
[35] = second compound 10 µM, first compound 1 µM
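Throughout, for viability, T/C: spheroids mix tumor cells with HUVEC endothelium and human MSC stroma; luminescence taken as viability surrogate after a week of drug exposure.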

## Nc1ncn(C2CC(O)C(CO)O2)c(=O)n1 (stereo not given) + Cc1cncc(-c2nc(NCCc3c[nH]c4ccccc34)c3ncn(C(C)C)c3n2)c1
[1]
  IC50: 936 nM
[2]
  IC50: > 1000 nM
[3]
  IC50: > 1000 nM
[4]
  IC50: > 1000 nM
[5]
  IC50: > 1000 nM
[6]
  viability, T/C: 92.4%
[7]
  viability, T/C: 84.2%
[8]
  viability, T/C: 101%
[9]
  viability, T/C: 95.4%
[10]
  viability, T/C: 79.6%
[11]
  viability, T/C: 48.2%
[12]
  viability, T/C: 102%
[13]
  viability, T/C: 99%
[14]
  viability, T/C: 96.4%
[15]
  viability, T/C: 82.7%
[16]
  viability, T/C: 63.9%
[17]
  viability, T/C: 55.7%
[18]
  viability, T/C: 112%
[19]
  viability, T/C: 117%
[20]
  viability, T/C: 121%
[21]
  viability, T/C: 93.9%
[22]
  viability, T/C: 82.3%
[23]
  viability, T/C: 57.5%
[24]
  viability, T/C: 148%
[25]
  viability, T/C: 123%
[26]
  viability, T/C: 145%
[27]
  viability, T/C: 119%
[28]
  viability, T/C: 115%
[29]
  viability, T/C: 79.8%
[30]
  viability, T/C: 141%
[31]
  viability, T/C: 110%
[32]
  viability, T/C: 152%
[33]
  viability, T/C: 124%
[34]
  viability, T/C: 135%
[35]
  viability, T/C: 76.1%

## CCN(c1cc(-c2ccc(CN3CCOCC3)cc2)cc(C(=O)NCc2c(C)cc(C)[nH]c2=O)c1C)C1CCOCC1 + Cc1cncc(-c2nc(NCCc3c[nH]c4ccccc34)c3ncn(C(C)C)c3n2)c1
[1]
  IC50: > 3000 nM
[2]
  IC50: > 3000 nM
[3]
  IC50: > 3000 nM
[4]
  IC50: > 3000 nM
[5]
  IC50: > 3000 nM
Second compound 0.1 µM, first compound 0.00949 µM
  viability, T/C: 118%
Second compound 0.1 µM, first compound 0.03 µM
  viability, T/C: 112%
Second compound 0.1 µM, first compound 0.0949 µM
  viability, T/C: 124%
Second compound 0.1 µM, first compound 0.3 µM
  viability, T/C: 94.7%
Second compound 0.1 µM, first compound 0.949 µM
  viability, T/C: 117%
Second compound 0.1 µM, first compound 3 µM
  viability, T/C: 95.9%
Second compound 0.316 µM, first compound 0.00949 µM
  viability, T/C: 99.5%
Second compound 0.316 µM, first compound 0.03 µM
  viability, T/C: 108%
Second compound 0.316 µM, first compound 0.0949 µM
  viability, T/C: 106%
Second compound 0.316 µM, first compound 0.3 µM
  viability, T/C: 109%
Second compound 0.316 µM, first compound 0.949 µM
  viability, T/C: 110%
Second compound 0.316 µM, first compound 3 µM
  viability, T/C: 104%
Second compound 1 µM, first compound 0.00949 µM
  viability, T/C: 125%
Second compound 1 µM, first compound 0.03 µM
  viability, T/C: 130%
Second compound 1 µM, first compound 0.0949 µM
  viability, T/C: 122%
Second compound 1 µM, first compound 0.3 µM
  viability, T/C: 118%
Second compound 1 µM, first compound 0.949 µM
  viability, T/C: 99.6%
Second compound 1 µM, first compound 3 µM
  viability, T/C: 115%
Second compound 3.16 µM, first compound 0.00949 µM
  viability, T/C: 158%
Second compound 3.16 µM, first compound 0.03 µM
  viability, T/C: 133%
Second compound 3.16 µM, first compound 0.0949 µM
  viability, T/C: 130%
Second compound 3.16 µM, first compound 0.3 µM
  viability, T/C: 148%
Second compound 3.16 µM, first compound 0.949 µM
  viability, T/C: 110%
Second compound 3.16 µM, first compound 3 µM
  viability, T/C: 124%
Second compound 10 µM, first compound 0.00949 µM
  viability, T/C: 112%
Second compound 10 µM, first compound 0.03 µM
  viability, T/C: 140%
Second compound 10 µM, first compound 0.0949 µM
  viability, T/C: 111%
Second compound 10 µM, first compound 0.3 µM
  viability, T/C: 116%
Second compound 10 µM, first compound 0.949 µM
  viability, T/C: 84.2%
Second compound 10 µM, first compound 3 µM
  viability, T/C: 72.3%

## COc1cccc2c1C(=O)c1c(O)c3c(c(O)c1C2=O)CC(O)(C(=O)CO)CC3OC1CC(N)C(O)C(C)O1 (stereo not given) + Cc1ccccc1N=Nc1ccc(NC(=O)c2ccnn2C)c(C)c1
[1]
  IC50: < 31.6 nM
[2]
  IC50: 36.9 nM
[3]
  IC50: 42.1 nM
[4]
  IC50: < 31.6 nM
[5]
  IC50: 165 nM
[8]
  viability, T/C: 40.6%
[9]
  viability, T/C: 34.4%
[10]
  viability, T/C: 28.5%
[11]
  viability, T/C: 6.16%
Second compound 0.1 µM, first compound 3.16 µM
  viability, T/C: 2.14%
Second compound 0.1 µM, first compound 10 µM
  viability, T/C: 9.5%
[14]
  viability, T/C: 53.9%
[15]
  viability, T/C: 33.6%
[16]
  viability, T/C: 34%
[17]
  viability, T/C: 7.86%
Second compound 0.316 µM, first compound 3.16 µM
  viability, T/C: 3.02%
Second compound 0.316 µM, first compound 10 µM
  viability, T/C: 11.5%
[20]
  viability, T/C: 55%
[21]
  viability, T/C: 34.9%
[22]
  viability, T/C: 30.1%
[23]
  viability, T/C: 4.75%
Second compound 1 µM, first compound 3.16 µM
  viability, T/C: 2.47%
Second compound 1 µM, first compound 10 µM
  viability, T/C: 11.2%
[26]
  viability, T/C: 55.6%
[27]
  viability, T/C: 39.9%
[28]
  viability, T/C: 34.3%
[29]
  viability, T/C: 6.42%
Second compound 3.16 µM, first compound 3.16 µM
  viability, T/C: 4.98%
Second compound 3.16 µM, first compound 10 µM
  viability, T/C: 9.42%
[32]
  viability, T/C: 89.7%
[33]
  viability, T/C: 63%
[34]
  viability, T/C: 34.4%
[35]
  viability, T/C: 3.83%
Second compound 10 µM, first compound 3.16 µM
  viability, T/C: 2.39%
Second compound 10 µM, first compound 10 µM
  viability, T/C: 7.28%

## COc1cc(Nc2ncc3c(n2)-c2ccc(Cl)cc2C(c2c(F)cccc2OC)=NC3)ccc1C(=O)O
Compound 0.0316 µM
  viability, T/C: 77.4% and 67.8% and 86.3%
Compound 0.1 µM
  viability, T/C: 85.5% and 81.5% and 77.1%
Compound 0.316 µM
  viability, T/C: 58.4% and 76.3% and 50%
Compound 1 µM
  viability, T/C: 57.4% and 60% and 62%
Compound 3.16 µM
  viability, T/C: 82.1% and 66.4% and 67%
Compound 10 µM
  viability, T/C: 66.9% and 47.4% and 49.2%
Curve of compound
  IC50: > 10000 nM and 8540 nM

## CC1COCCN1c1cc(-c2ccnn2C)c2ccnc(-c3ccn[nH]3)c2n1 (stereo not given) + Cc1cncc(-c2nc(NCCc3c[nH]c4ccccc34)c3ncn(C(C)C)c3n2)c1
[1]
  IC50: 116 nM
[2]
  IC50: 136 nM
[3]
  IC50: 87.4 nM
[4]
  IC50: 132 nM
[5]
  IC50: 88.8 nM
[6]
  viability, T/C: 112%
[7]
  viability, T/C: 109%
[8]
  viability, T/C: 106%
[9]
  viability, T/C: 55.6%
[10]
  viability, T/C: 12.8%
[11]
  viability, T/C: 16.2%
[12]
  viability, T/C: 113%
[13]
  viability, T/C: 130%
[14]
  viability, T/C: 117%
[15]
  viability, T/C: 63.3%
[16]
  viability, T/C: 12.4%
[17]
  viability, T/C: 12.7%
[18]
  viability, T/C: 94.7%
[19]
  viability, T/C: 123%
[20]
  viability, T/C: 121%
[21]
  viability, T/C: 41.6%
[22]
  viability, T/C: 15.7%
[23]
  viability, T/C: 13.1%
[24]
  viability, T/C: 176%
[25]
  viability, T/C: 167%
[26]
  viability, T/C: 145%
[27]
  viability, T/C: 61.1%
[28]
  viability, T/C: 13.6%
[29]
  viability, T/C: 19.1%
[30]
  viability, T/C: 127%
[31]
  viability, T/C: 134%
[32]
  viability, T/C: 105%
[33]
  viability, T/C: 45.2%
[34]
  viability, T/C: 8.85%
[35]
  viability, T/C: 12.9%

## CC1COCCN1c1cc(C2(S(C)(=N)=O)CC2)nc(-c2ccnc3[nH]ccc23)n1 (stereo not given)
Compound 0.0316 µM
  viability, T/C: 100% and 91.6% and 125%
Compound 0.1 µM
  viability, T/C: 108% and 93.5% and 106%
Compound 0.316 µM
  viability, T/C: 107% and 85.8% and 101%
Compound 1 µM
  viability, T/C: 114% and 85.9% and 106%
Compound 3.16 µM
  viability, T/C: 34.1% and 30.7% and 22.6%
Compound 10 µM
  viability, T/C: 18.6% and 15.7% and 17.3%
Curve of compound
  IC50: 2470 nM and 2110 nM and 2160 nM

## CC(C)CC(NC(=O)C(Cc1ccccc1)NC(=O)c1cnccn1)B(O)O (stereo not given)
Compound 0.000949 µM
  viability, T/C: 93.7% and 85.5% and 84.3%
Compound 0.003 µM
  viability, T/C: 94.1% and 71.8% and 78.5%
Compound 0.03 µM
  viability, T/C: 1.41% and 1.04% and 0.32%
Compound 0.0949 µM
  viability, T/C: 0.32% and 0.33% and 0.22%
Compound 0.3 µM
  viability, T/C: 0.33% and 0.39% (2×)
Curve of compound
  IC50: 16.5 nM and 13.1 nM and 4.71 nM
